{"source": "paper PMC8500839", "about": "“Structures of outer-arm dynein array on microtubule doublet reveal a motor coordination mechanism” (Nature Structural & Molecular Biology, 2021)", "molecules": {"B1": {"name": "outer-arm dynein intermediate chain IC2 (natural protein, T. thermophila, UniProt I7M008 1-667, looked up)", "chain": "MPPKQTKVVASRKTVMPISRAGRAQIRRKDSNTQNNMNDQGMEDEEIDQQREGMKNQYEQLTAQELNEDMPSKMLEPKNPQAPKNITVYDYYTRKFKTDELVDQMIVHFSMDGDYIWKESNEYKTQEEIRDTKKALIKEAMRKQESEEPGANHDEEAIKQTLRNKFNYNTRECQTINPSIRERGVSTEPPPSDTICGNITQWEIFDAYYAEIMKDHQIENKKKKEVDQDKKQDQSMYSTSFKRCCKIMERMVVQNDQEDKYHDYRYYWSQGDNLEAGKNEGHLLPIWRFSNEKQRKKNVTSICWNPLYPDLFAVSLGSYDFTKQRMGLICLYSLKNTTHPEYAFNCEAGVMCLDFHPKSAALLAVGLYDGTVLVYDIRNKHKKPIYQSTVRNQKHTDPVWQVKWNPDTSKNYNFYSISSDGRVMNWILMKNKLEPEEVILLRLVGKNEEESTLIGLACGLCFDFNKFEPHIFLVGTEEGKIHKCSRAYSGQYQETYNGHLLAVYKVKWNNFHPRTFISASADWTVRIWDSKYTSQIICFDLSMMVVDAVWAPYSSTVFACATMDKVQVYDLNVDKLNKLAEQKIVKQPKLTNLSFNYKDPILLVGDSHGGVTLVKLSPNLCKSGPEIKQTEDKKAMEEFKNVKIEDYEREKMENLLAVVSKWEREDA", "notes": "outer-arm dynein intermediate chain 2, T. thermophila, native subunit; source: purified from T. thermophila cilia as a subunit of native OAD (high salt extraction, sucrose gradient, ion exchange)"}, "B2": {"name": "Tctex-b (LC2A) (natural protein, T. thermophila, UniProt C0HME8 1-132, looked up)", "chain": "MKGTYLYLNIYKRKREASLITLNYIKNRFYPSKIQKIIKELFEDRLKGVEYDPNNANQLSERLVLELREKIKRGKVPRYKIGVQVVFGEIKGQGLRIASKCLWDVQNDNYASYTYTSEKVYCTGIVFGCYFE", "notes": "light chain LC2A, the best hit for the Tctex-b position, T. thermophila; source: purified from T. thermophila cilia as a subunit of native OAD (high salt extraction, sucrose gradient, ion exchange)"}}, "key": {"[1]": {"target": "T1, γ-HC (γ-motor domain) of T. thermophila OAD (Tetrahymena thermophila, UniProt I7M6H4)", "T1 construct": "gene TTHERM_00486600; from cilia", "T1 sequence (I7M6H4 1-4168)": "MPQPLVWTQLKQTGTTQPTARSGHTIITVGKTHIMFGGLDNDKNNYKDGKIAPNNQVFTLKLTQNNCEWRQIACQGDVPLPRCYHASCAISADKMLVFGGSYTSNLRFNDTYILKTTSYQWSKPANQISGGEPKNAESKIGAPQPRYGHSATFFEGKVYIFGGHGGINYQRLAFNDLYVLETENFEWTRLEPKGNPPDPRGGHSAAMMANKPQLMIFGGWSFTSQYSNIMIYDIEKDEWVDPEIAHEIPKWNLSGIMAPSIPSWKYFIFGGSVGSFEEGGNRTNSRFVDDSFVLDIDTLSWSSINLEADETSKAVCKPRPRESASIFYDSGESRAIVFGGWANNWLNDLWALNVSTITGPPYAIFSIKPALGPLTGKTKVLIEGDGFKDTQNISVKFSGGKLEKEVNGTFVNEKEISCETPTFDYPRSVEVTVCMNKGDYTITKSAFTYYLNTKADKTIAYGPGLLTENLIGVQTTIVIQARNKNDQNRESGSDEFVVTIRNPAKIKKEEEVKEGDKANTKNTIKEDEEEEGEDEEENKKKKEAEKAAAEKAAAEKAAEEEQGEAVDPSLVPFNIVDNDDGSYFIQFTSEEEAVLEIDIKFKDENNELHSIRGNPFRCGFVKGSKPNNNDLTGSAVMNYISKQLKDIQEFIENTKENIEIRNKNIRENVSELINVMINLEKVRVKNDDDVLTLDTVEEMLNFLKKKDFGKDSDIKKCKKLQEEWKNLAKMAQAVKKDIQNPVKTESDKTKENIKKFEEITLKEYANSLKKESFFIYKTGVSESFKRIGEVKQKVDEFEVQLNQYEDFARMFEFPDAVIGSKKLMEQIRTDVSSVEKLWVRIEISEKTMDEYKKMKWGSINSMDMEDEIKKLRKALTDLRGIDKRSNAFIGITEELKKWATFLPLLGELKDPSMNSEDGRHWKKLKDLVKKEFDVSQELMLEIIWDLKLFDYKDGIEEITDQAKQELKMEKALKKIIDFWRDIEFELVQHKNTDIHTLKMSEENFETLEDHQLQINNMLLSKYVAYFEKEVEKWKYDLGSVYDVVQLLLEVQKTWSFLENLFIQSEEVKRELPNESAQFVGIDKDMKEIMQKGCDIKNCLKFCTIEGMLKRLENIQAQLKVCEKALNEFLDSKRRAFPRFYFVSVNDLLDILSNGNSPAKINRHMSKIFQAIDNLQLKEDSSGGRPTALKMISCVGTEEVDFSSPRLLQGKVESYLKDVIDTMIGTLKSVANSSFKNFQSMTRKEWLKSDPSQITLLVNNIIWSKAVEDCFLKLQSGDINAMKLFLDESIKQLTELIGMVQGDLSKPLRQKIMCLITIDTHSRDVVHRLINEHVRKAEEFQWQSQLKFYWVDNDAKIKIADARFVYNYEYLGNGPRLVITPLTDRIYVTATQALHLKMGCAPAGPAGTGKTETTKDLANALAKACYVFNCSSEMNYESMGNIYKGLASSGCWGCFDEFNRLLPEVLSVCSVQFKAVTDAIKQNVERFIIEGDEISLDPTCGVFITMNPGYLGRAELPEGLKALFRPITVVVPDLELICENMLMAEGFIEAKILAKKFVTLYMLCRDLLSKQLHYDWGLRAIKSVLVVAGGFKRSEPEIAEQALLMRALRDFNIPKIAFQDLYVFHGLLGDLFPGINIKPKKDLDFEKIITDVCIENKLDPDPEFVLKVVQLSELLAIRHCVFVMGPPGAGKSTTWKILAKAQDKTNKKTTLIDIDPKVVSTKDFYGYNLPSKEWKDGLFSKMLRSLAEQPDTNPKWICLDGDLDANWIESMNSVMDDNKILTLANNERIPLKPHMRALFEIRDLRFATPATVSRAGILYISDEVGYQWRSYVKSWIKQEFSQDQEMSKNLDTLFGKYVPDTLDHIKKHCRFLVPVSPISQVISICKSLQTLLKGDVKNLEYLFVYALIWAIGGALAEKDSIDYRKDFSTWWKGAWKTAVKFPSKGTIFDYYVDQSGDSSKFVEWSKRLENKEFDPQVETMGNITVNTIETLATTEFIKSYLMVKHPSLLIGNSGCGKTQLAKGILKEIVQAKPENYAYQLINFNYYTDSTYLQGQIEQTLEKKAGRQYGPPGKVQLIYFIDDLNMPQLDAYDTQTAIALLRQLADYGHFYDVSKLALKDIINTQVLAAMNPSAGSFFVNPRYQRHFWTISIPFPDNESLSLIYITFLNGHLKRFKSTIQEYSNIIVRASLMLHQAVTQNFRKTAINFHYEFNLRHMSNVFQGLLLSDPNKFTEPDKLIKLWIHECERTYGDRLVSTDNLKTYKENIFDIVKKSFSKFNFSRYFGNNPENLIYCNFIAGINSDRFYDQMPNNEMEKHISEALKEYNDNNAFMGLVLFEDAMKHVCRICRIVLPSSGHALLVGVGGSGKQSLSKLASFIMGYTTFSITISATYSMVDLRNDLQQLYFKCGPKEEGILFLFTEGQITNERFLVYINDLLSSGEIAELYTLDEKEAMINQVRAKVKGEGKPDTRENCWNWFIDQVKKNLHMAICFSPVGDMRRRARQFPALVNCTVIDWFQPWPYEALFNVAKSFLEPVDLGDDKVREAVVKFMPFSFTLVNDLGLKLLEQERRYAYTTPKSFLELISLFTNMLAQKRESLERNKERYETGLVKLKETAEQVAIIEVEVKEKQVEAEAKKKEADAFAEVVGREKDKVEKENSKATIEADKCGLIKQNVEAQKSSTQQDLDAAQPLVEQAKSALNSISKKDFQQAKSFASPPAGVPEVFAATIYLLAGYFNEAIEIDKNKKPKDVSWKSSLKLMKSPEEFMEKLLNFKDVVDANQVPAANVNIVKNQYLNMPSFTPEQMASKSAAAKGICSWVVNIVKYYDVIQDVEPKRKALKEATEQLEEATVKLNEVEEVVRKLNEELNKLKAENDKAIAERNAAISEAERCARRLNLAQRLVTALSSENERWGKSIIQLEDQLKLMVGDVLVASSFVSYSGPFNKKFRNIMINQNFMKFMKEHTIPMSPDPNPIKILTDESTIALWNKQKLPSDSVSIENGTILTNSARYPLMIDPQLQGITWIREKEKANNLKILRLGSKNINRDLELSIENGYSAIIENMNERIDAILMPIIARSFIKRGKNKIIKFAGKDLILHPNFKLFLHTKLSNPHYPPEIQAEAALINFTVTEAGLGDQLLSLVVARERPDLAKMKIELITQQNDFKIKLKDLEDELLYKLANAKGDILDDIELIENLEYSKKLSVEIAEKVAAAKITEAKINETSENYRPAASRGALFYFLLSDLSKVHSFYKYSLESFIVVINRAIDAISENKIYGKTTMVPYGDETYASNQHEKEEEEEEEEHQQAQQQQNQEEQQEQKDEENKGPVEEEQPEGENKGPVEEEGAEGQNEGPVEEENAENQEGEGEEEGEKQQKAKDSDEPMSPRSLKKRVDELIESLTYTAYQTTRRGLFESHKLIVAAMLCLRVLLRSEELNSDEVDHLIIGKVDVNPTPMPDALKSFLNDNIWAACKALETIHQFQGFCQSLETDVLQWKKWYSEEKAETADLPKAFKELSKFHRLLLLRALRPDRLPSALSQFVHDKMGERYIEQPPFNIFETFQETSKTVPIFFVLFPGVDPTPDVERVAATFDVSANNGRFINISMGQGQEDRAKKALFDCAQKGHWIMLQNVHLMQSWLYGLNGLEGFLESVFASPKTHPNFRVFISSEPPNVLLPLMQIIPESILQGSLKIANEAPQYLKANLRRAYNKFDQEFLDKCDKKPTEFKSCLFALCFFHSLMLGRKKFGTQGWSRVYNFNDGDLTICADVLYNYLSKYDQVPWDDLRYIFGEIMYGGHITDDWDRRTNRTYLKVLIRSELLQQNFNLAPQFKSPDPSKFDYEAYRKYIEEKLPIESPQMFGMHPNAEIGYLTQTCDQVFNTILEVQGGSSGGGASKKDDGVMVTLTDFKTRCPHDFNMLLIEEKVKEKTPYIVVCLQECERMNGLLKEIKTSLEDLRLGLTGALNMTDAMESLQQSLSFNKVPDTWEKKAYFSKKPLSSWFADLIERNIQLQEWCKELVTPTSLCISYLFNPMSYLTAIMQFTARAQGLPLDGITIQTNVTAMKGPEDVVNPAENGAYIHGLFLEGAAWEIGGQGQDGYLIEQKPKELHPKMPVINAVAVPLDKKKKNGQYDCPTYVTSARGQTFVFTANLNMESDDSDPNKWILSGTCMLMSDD", "assay": "cryo-EM structure of OAD-MTD array", "format": "binding", "settings": "Mg2+, no nucleotide added (apo state, co-purified)"}, "[2]": {"target": "T2, β-HC (β-motor domain) of T. thermophila OAD (Tetrahymena thermophila, UniProt I7M9J2)", "T2 construct": "gene TTHERM_00499300; from cilia", "assay": "cryo-EM structure of OAD-MTD array", "format": "binding", "settings": "Mg2+, no nucleotide added (apo state, co-purified)"}, "[3]": {"target": "T3, α-HC (α-motor domain) of T. thermophila OAD (Tetrahymena thermophila, UniProt Q22A67)", "T3 construct": "gene TTHERM_01276420; from cilia", "assay": "cryo-EM structure of OAD-MTD array", "format": "binding", "settings": "Mg2+, no nucleotide added (apo state, co-purified)"}, "[4]": {"target": "T4, outer-arm dynein (OAD) (Tetrahymena thermophila, UniProt I7M6H4+I7M9J2+Q22A67)", "T4 construct": "gene TTHERM_01276420; native OAD, high-salt extract of axonemes, sucrose gradient and ion exchange; not cross-linked; with Dynein intermediate chain 2; Dynein intermediate chain 3; Dynein light chain LC7-a (LC7A homolog); Dynein light chain LC7B; Dynein light chain LC10; Dynein light chain DLC82; Dynein light chain LC8E; Dynein light chain LC8-2b; Dynein light chain LC8-3a; Dynein light chain LC8-3b; Dynein light chain Tctex-a; Dynein light chain LC2A; Dynein light chain LC4A; Dynein light chain LC3BL; Dynein light chain 1", "assay": "negative-stain EM count of OAD array length / coverage on MTD", "format": "biochemical", "settings": "10 to 1,000 μM ATPγS; slowly hydrolysed; 45 nM OAD; 20 mM HEPES pH 7.4, 100 mM KCl, 5 mM MgSO4, 1 mM DTT"}, "[5]": {"target": "T4, outer-arm dynein (OAD)", "assay": "negative-stain EM of OAD coverage on MTD; microtubule gliding assay", "format": "biochemical", "settings": "1 mM ATP; 45 nM OAD; 20 mM HEPES pH 7.4, 100 mM KCl, 5 mM MgSO4, 1 mM DTT"}, "[6]": {"target": "T5, outer-arm dynein intermediate chain IC3 (T. thermophila, UniProt Q23FU1 1-670)", "T5 construct": "outer-arm dynein intermediate chain 3, T. thermophila, native subunit; source: purified from T. thermophila cilia as a subunit of native OAD (high salt extraction, sucrose gradient, ion exchange)", "T5 sequence (looked up)": "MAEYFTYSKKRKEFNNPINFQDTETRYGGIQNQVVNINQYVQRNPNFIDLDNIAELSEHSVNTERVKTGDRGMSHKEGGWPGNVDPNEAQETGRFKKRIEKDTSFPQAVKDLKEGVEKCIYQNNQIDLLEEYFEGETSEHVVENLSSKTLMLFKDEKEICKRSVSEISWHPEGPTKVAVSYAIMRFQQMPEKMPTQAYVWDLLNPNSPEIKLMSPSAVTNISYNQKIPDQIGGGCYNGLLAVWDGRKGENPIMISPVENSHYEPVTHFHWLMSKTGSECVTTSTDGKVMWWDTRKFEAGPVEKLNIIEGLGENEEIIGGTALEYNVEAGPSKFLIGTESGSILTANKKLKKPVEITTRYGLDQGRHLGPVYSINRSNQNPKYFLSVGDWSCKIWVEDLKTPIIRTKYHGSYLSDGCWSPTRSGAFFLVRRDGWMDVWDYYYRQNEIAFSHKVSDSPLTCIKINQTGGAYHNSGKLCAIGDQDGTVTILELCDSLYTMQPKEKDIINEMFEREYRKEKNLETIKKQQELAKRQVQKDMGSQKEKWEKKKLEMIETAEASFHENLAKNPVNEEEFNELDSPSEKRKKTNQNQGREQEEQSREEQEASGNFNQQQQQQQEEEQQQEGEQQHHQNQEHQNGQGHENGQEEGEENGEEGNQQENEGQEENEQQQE", "assay": "cryo-EM structure; freshly purified native OAD (not cross-linked) reconstituted on MTD in 20 mM HEPES pH 7.4, 100 mM KCl, 5 mM MgSO4, 1 mM DTT, on ice 45 min; apo state, no docking complex; two classes MTBS-1 and MTBS-2; MTD lattice refined from the same data", "settings": "both partners purified"}, "[7]": {"target": "B1", "assay": "cryo-EM structure; freshly purified native OAD (not cross-linked) reconstituted on MTD in 20 mM HEPES pH 7.4, 100 mM KCl, 5 mM MgSO4, 1 mM DTT, on ice 45 min; apo state, no docking complex; two classes MTBS-1 and MTBS-2; MTD lattice refined from the same data", "settings": "both partners purified"}, "[8]": {"settings": "sites AAA3 and AAA4 (same state as β-HC)"}}}
{"molecule": "Nc1ncnc2c1ncn2[C@@H]1O[C@H](COP(=O)(O)OP(=O)(O)O)[C@@H](O)[C@H]1O", "note": "[ADP]", "values": [{"measurement": "cryo-EM structure of OAD-MTD array", "setting": "[1]; [8]", "result": "Other motor domains have the same nucleotide binding states."}, {"measurement": "cryo-EM structure of OAD-MTD array", "setting": "[2]; sites AAA3 and AAA4", "result": "ATP in β-AAA2 and ADP in β-AAA3/AAA4 were unambiguously identified from the density."}, {"measurement": "cryo-EM structure of OAD-MTD array", "setting": "[3]; [8]", "result": "Other motor domains have the same nucleotide binding states."}]}
{"molecule": "Nc1ncnc2c1ncn2[C@@H]1O[C@H](COP(=O)(O)OP(=O)(O)OP(O)(O)=S)[C@@H](O)[C@H]1O", "note": "[ATPγS]", "values": [{"measurement": "negative-stain EM count of OAD array length / coverage on MTD", "setting": "[4]", "result": "Using a titration of ATPγS, we were able to gradually shorten OAD arrays in vitro"}]}
{"molecule": "Nc1ncnc2c1ncn2[C@@H]1O[C@H](COP(=O)(O)OP(=O)(O)OP(=O)(O)O)[C@@H](O)[C@H]1O", "note": "[ATP]", "values": [{"measurement": "cryo-EM structure of OAD-MTD array", "setting": "[1]; site AAA2 (same state as β-HC)", "result": "Other motor domains have the same nucleotide binding states."}, {"measurement": "cryo-EM structure of OAD-MTD array", "setting": "[2]; site AAA2", "result": "ATP in β-AAA2 and ADP in β-AAA3/AAA4 were unambiguously identified from the density."}, {"measurement": "cryo-EM structure of OAD-MTD array", "setting": "[3]; site AAA2 (same state as β-HC)", "result": "Other motor domains have the same nucleotide binding states."}, {"measurement": "negative-stain EM of OAD coverage on MTD; microtubule gliding assay", "setting": "[5]", "result": "fell off the MTDs in the presence of ATP, ADP·Vi or ATPγS"}]}
{"molecule": "B1", "values": [{"measurement": "binding result", "setting": "[6]", "result": "binds"}]}
{"molecule": "B2", "values": [{"measurement": "binding result", "setting": "[7]", "result": "binds"}, {"measurement": "binding result", "setting": "[6]", "result": "binds"}]}
